Results as given in US20170056367A1, “PHARMACEUTICAL COMPOSITIONS FOR INHIBITING THE OSTEOCLAST DIFFERENTIATION COMPRISING EUPATILIN” (OsteoNeuroGen CO., LTD, priority 2015, published 2017).

Assays:
[1] = tested on: mouse bone marrow cells (MBMC); experiment: Differentiation of mouse bone marrow cells (MBMC) into osteoclasts with M-CSF and RANKL; format: cell-based
Description: Incubation with M-CSF (macrophage-colony stimulating factor) and RANK (receptor activator of NFκB) ligand (RANKL) induced mouse bone marrow cells (MBMC) to differentiate into osteoclasts during which eupatilin was used at various concentrations under monitoring.

[2] = tested on: Ovariectomized mice (OVX); experiment: Ovariectomized mice (OVX) model of menopausal osteoporosis; format: in vivo, mouse; conditions: 50 μM eupatilin, FIG. 8
[3] = tested on: Osteoblasts differentiated from mesenchymal stem cells; experiment: ALP activity of osteoblasts differentiated from mesenchymal stem cells; format: cell-based, mouse; conditions: FIG. 9
Description: Osteoblasts differentiated from mesenchymal stem cells were measured for ALP activity in the presence of eupatilin.

[4] = tested on: LPS-induced osteoporosis mouse models; experiment: LPS-induced osteoporosis model; format: in vivo
[5] = tested on: RANK-mediated NF-kB activation; experiment: NF-kB-luciferase assay; format: cell-based; conditions: FIG. 3D
Description: Retroviral overexpression of catalytically active IKKb or Akt induced partial formation of TRP^+ osteoclasts (FIGS. 3B and 3C). An NF-kB-luciferase assay was conducted to examine whether the RANK-mediated NF-kB activation was modulated by eupatilin.

[6] = tested on: GSK3b; experiment: Osteoclast formation upon overexpression of GSK3b; format: cell-based; conditions: FIGS. 4A and 4B
[7] = tested on: IkB, Akt, and GSK3b; experiment: Phosphorylation of IkB, Akt and GSK3b during differentiation of MBMC into osteoclasts (gel electrophoresis); format: cell-based, mouse; conditions: compared to control groups, FIG. 3A
[8] = tested on: osteoclasts; experiment: RANKL-mediated bone resorption measured using dentin; format: cell-based
Description: Effects of eupatilin on RANKL-mediated bone-resorption were measured using dentin.

[9] = tested on: human peripheral blood mononucleated cells (PBMC); experiment: Differentiation of human PBMC into osteoclasts; format: cell-based; conditions: 50 μM, FIG. 5
Excerpt: Effects of eupatilin on the differentiation of human PBMC into osteoclasts were observed.

[10] = tested on: mouse bone marrow cells (MBMC); experiment: Cytotoxicity of eupatilin (FIG. 1D); format: cell-based; conditions: at the concentration (50 μM)
[11] = tested on: TRAP, OSCAR, Integrin av, DC-STAMP, integrin b3, and OC-STAMP; experiment: Osteoclast differentiation marker gene levels by real-time PCR; format: cell-based, mouse; conditions: 50 μM eupatilin, MBMC differentiation, FIG. 2
Description: During the differentiation of MBMC into osteoclasts in the presence of 50 μM eupatilin, the levels of osteoclast differentiation marker genes were measured by real-time PCR.

RANK-mediated NF-kB activation [5]: inhibit
Compound: COc1ccc(-c2cc(=O)c3c(O)c(OC)c(O)cc3o2)cc1OC [eupatilin, 5,7-dihydroxy-3,4,6-trimethoxyflavone]
osteoclast differentiation ([1]; 50 μM eupatilin, M-CSF and RANKL, FIG. 1A): completely suppressed
F-actin formation in MNCs (immunofluorescence) ([1]; FIG. 1C): significantly reduced
formation of TRP^+ multinucleated osteoclasts (MNCs) ([1]; various concentrations, FIG. 1B): suppressed the formation of TRP^+ multinucleated osteoclasts (MNCs) in a dose-dependent manner
bone density loss (CT) [2]: significantly reduced
reduction of the activity of osteoblasts (ALP activity) ([3]; 50 μM): 50%
activity of osteoblasts (ALP activity) ([3]; up to 25 μM): did not influence
LPS-induced osteoporosis (bone density by CT) ([4]; 50 μM eupatilin, LPS intraperitoneally, FIG. 7A): significantly reduced
H&E and TRAP staining ([4]; LPS model, bottom panel of FIG. 7): promote osteanagenesis and inhibit osteoclast differentiation
bone density ([4]; LPS or LPS+ eupatilin, FIGS. 7B to 7E): improve bone density
MNCs in the presence of eupatilin upon overexpression of GSK3b [6]: a significant quantity of MNCs was observed
phosphorylation levels of IkB, Akt, and GSK3b [7]: significantly reduced
expression of Pit ([8]; dentin, FIG. 6B): reduced
expression of F-actin for the formation of osteoclast actin rings ([8]; osteoclasts differentiated by RANK signaling, FIG. 6A): remarkably suppressed
expression of Cathepsin K ([8]; time-dependent manner, FIG. 6): significantly decreasing
expression of c-Fos, NFATc1, p-Akt, p-GSK3b, and p-IkB [9]: significantly reduce
formation of TRP^+ osteoclasts [9]: significantly reduce
cytotoxicity [10]: no cytotoxicity
levels of the markers TRAP, OSCAR, Integrin av, DC-STAMP, integrin b3, and OC-STAMP [11]: significantly reduced
